Key:
[1] = target: T1, CYP154C3-1 (Streptomyces sp., UniProt A0A2H4WK73); experiment: type I spectral shift titration (A390-A420), tight-binding quadratic fit; set-up: species or system Streptomyces sp. W2061
T1 construct: full-length CDS 1,239 bp (412 residues), N-terminal Trx-His-S-enterokinase fusion from pET32a(+) kept, E. coli C41(DE3), ~65 kDa on SDS-PAGE (~45 kDa theoretical without fusion), heme protein
Description: type I spectral shift titration (A390-A420), tight-binding quadratic fit on CYP154C3-1

[2] = target: T2, CYP154C3-2 (Streptomyces sp., UniProt A0A7S9IUH5); experiment: as above
T2 construct: full-length CDS 1,254 bp (417 residues), N-terminal Trx-His-S-enterokinase fusion from pET32a(+) kept, E. coli C41(DE3), ~65 kDa on SDS-PAGE (~45 kDa theoretical without fusion), heme protein
T2 sequence (A0A7S9IUH5 1-417): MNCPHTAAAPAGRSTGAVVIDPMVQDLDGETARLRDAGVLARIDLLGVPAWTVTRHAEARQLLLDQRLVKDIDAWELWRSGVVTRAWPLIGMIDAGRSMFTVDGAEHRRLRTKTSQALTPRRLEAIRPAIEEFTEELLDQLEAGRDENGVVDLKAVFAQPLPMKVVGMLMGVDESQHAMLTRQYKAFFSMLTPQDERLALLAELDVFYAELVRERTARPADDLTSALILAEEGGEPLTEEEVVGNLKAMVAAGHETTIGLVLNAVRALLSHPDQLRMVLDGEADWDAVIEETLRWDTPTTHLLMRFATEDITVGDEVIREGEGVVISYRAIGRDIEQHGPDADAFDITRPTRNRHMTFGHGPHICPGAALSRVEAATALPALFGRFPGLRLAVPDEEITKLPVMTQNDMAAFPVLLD
Description: type I spectral shift titration (A390-A420), tight-binding quadratic fit on CYP154C3-2

T1 sequence (A0A2H4WK73 1-414): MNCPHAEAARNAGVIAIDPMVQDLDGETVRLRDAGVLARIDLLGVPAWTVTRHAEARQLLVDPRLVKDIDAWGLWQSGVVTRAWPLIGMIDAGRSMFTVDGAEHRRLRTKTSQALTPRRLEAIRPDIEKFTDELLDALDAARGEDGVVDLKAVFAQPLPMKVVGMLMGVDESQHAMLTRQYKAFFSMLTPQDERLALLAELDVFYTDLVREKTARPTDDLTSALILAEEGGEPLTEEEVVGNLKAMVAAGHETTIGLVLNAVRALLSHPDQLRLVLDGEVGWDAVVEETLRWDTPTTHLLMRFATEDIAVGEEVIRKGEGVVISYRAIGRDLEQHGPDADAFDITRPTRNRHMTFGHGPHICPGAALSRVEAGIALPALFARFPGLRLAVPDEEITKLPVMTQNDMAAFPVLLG

| Compound | Kd [1] | Kd [2] |
| --- | --- | --- |
| C[C@]12CCC(=O)C=C1CC[C@@H]1[C@@H]2C(=O)C[C@]2(C)C(=O)CC[C@@H]12 [compound 1, Adrenosterone] | 0.318 ± 0.026 µM | 0.443 ± 0.035 µM |
| C[C@]12CC[C@H]3[C@@H](CCC4=CC(=O)CC[C@@H]43)[C@@H]1CC[C@@H]2O [compound 6, Nandrolone] | 13.5 ± 2.62 µM | 6.58 ± 0.84 µM |
| CC(=O)[C@H]1CC[C@H]2[C@@H]3CCC4=CC(=O)CC[C@]4(C)[C@H]3CC[C@]12C [compound 9, Progesterone] |  | 0.409 ± 0.037 µM |
| C[C@]12C[C@H](O)[C@H]3[C@@H](CCC4=CC(=O)CC[C@@]43C)[C@@H]1CC[C@@H]2C(=O)CO [compound 3, Corticosterone] | 14.1 ± 2.57 µM | 44.5 ± 3.97 µM |
| C[C@]12CCC(=O)C=C1CC[C@@H]1[C@@H]2CC[C@]2(C)C(=O)CC[C@@H]12 [compound 2, Androstenedione] | 0.351 ± 0.033 µM | 0.475 ± 0.054 µM |
